These results are taken from paper PMC10216263, “Favorable Preclinical Pharmacological Profile of a Novel Antimalarial Pyrrolizidinylmethyl Derivative of 4-amino-7-chloroquinoline with Potent In Vitro and In Vivo Activities” (Biomolecules, 2023).

In data set [1] the test system is P. falciparum IPC5202 (ARM-R). As to the kind of experiment: microbe, parasite or virus in culture. The class given is cell-based. As to the method:
(§1) The strains D10 and 3D7 (CQ-Sensitive), and V1-S (CQ, pyrimethamine and cycloguanil resistant), K1 (CQ and PYR resistant), W2 and FCR3 (CQ-Resistant), TM90C2A (CQ, MQ, PYR and ATQ resistant) and IPC 5202 (MR4-1240, artemisinin-resistant, K13 mutation, and R539T) of Pf were cultured in vitro as described by Trager and Jensen with minor modifications. Briefly, parasites were maintained at 5% hematocrit (human type A-positive red blood cells) in RPMI 1640 (EuroClone, S.p.A. Milan, Italy) medium with the addition of 10% heat inactivate human serum or 1% AlbuMax (In vitrogen, Milan, Italy), 20 mM Hepes and 2 mM glutamine (Euroclone), at 37 °C in a standard gas mixture consisting of 1–3% O2, 5% CO2, and 92–94% N2.
(§2) Compounds were dissolved in either water or DMSO and then diluted with medium to achieve the required concentrations (final non-toxic DMSO concentration <1%). Asynchronous cultures of Pf with parasitaemia of 1–1.5% and 1% final hematocrit were aliquoted into 96-well flat-bottom microplates (Corning, Glendale, AZ, USA) with serial dilutions of test compounds and incubated for 72 h at 37 °C. Parasite growth was determined spectrophotometrically (OD650) by measuring the activity of the parasite lactate dehydrogenase (pLDH) according to a modified version of the method of Makler in control and drug-treated cultures.

Data set [2] deals with all the Pf strains tested. As to the kind of experiment: In vitro antimalarial activity, summary over all Pf strains tested. Format: cell-based, P. falciparum. Particulars: for IC50: Plasmodium falciparum. As to the method:
as §1, §2

In another data set the test system is P. berghei ANKA. As to the kind of experiment: Four-day suppressive Peters' test, oral. Format: in vivo, P. berghei in CD1 mice. Particulars: once a day for 4 days, parasitemia day 4, CD1 mice. The procedure: Groups of five CD1 mice were inoculated i.v., with 4 × 10^6 infected erythrocytes/mice. Compounds, dissolved in standard suspending formula (SSV) (0.5% sodium carboxymethylcellulose, 0.5% benzyl alcohol, 0.4% Tween 80, and 0.9% NaCl), were administered once a day for 4 days via oral gavage, starting two hours post-infection. […] Parasitemia was evaluated using microscopic examination of Giemsa-stained blood films taken on day four, processed using MICROSOFT® EXCEL spreadsheets (Microsoft Corp., Redmond, WA, USA), and expressed as percentages of inhibition from the arithmetic mean parasitemia of each group in relation to the untreated group. ED50 and ED90 values were calculated using GraphPad Prism 6 (GraphPad Software Inc., La Jolla, CA, USA).

A short description of data set [3]: Plasma protein binding by ultrafiltration, human, rat and dog. Particulars: male, SD (rat), Beagle (dog), read-out: free fraction. Format: in vitro ADME. As to the method:
Plasma protein binding was performed via ultrafiltration (30,000 D cutoff, Amicon, Merck) with heparinized blood samples (male SD rats, Charles River Italy, and male Beagle dogs, Marshall Farms, Europe, Lyon, France) and fresh and frozen heparinized human blood samples collected from fasted healthy male subjects (at least two subjects for plasma samples), were supplied by AAI, Germany. MG3 final concentrations of 100, 300 and 1000 ng/mL were prepared using a 10 mg/mL stock solution while control samples at the same concentrations diluted in DPBS buffer (Dulbecco’s Phosphate Buffered Saline, Sigma-Aldrich) to evaluate the recovery. […] The percentage of bound drug (% Fbound) and of unbound drug (% Ffree) was determined using the following equations: % Fbound = [(Conc. Total–Conc. Free)/Conc. […] Total is the compound concentration determined in plasma and Conc. Free is the compound concentration determined in the ultrafiltrated samples. Results were expressed as % of binding and % of free fraction (single values and mean ± SD). […] Blood to plasma ratio was calculated as: Conc. in blood/Conc. in plasma; where, Conc. is the compound concentration determined in blood and in plasma at the same time of incubation.

For the next data set, the system named is P. falciparum D10 (CQ-S). Also on record: method as in PMID 18538567. Particulars: 72 h incubation, pLDH method, mean of 3 experiments; cited from earlier work.
Data set [4] concerns Escherichia coli WP2 uvrA. As to the kind of experiment: Bacterial Reverse Mutation Assay. Particulars: with metabolic activation.
Description: using the preincubation method (30 min, 37°C) with and without phenobarbital-5,6-benzoflavone induced
MG3 was dissolved in distilled water (H2O) at
the maximum concentration of 40 mg/mL and tested in a preliminary range-finding test in all strains of
metabolic activation to determine the toxicity of the compound.

The structures appear in SMILES notation. Where “and” joins values, the source holds several entries; their conditions need not be identical. Identical values can stand only once. Like-named read-outs stand apart in the source and are kept apart here.

As for `Clc1ccc2c(NCC34CCCN3CCC4)ccnc2c1` [MG3, 7-Chloro-N-((hexahydro-1H-pyrrolizin-7a-yl)methyl)quinolin-4-amine], the half-maximal inhibitory concentration (IC50) (as a rule, the concentration at which inhibition is half-maximal) in data set [1] (Plasmodium falciparum, 72 h, read-out: P. falciparum IC50 nM, IPC5202 (ARM-R), 72 h incubation, pLDH method) is below 15 nM; in data set [1] (read-out: P. falciparum IC50 nM, IPC5202 (ARM-R), 72 h incubation, pLDH method), 10 nM and 10.7 nM; in data set [2] (read-out: mean IC50 against all the Pf strains tested), 20.9 nM; in data set [2] (range over strains, read-out: IC50 range against all the Pf strains tested) it was 12 to 30 nM; in the data set on P. falciparum D10 (CQ-S), 30.6 nM. For the same molecule, the “activity fold lower than that of ASN or DHA” value in data set [2] (P. falciparum strains) is 5–6 fold. The ED50 (usually the midpoint of the dose-response relation) with P. berghei ANKA (Plasmodium berghei, 96 h, read-out: ED50 (95% CI) Mean) turned out to be 5.22 mg/kg. The “ED90 (95% CI) Mean” value in the data set on P. berghei ANKA is reported as 7.55 (6.38–8.72) mg/kg. In addition, the fraction unbound in data set [3] lay within 0.16 to 0.33. Further, the “fold increase value (ratio treated/solvent revertant numbers)” value in data set [4] (I° Exp., 62.5 µg/plate) was determined as 1.4; in data set [4] (I° Exp., 125 µg/plate), 1.4; in data set [4] (I° Exp., 250 µg/plate), 1.5; in data set [4] (I° Exp., 500 µg/plate) it was 0.8; in data set [4] (I° Exp., 1000 µg/plate), 0.7; in data set [4] (Range finding, 1.95 µg/plate), 1.0. The “fold increase value (ratio treated/solvent revertant numbers)” value in data set [4] (Range finding, 3.9 µg/plate) worked out at 0.9; in data set [4] (Range finding, 7.81 µg/plate), 0.9; in data set [4] (Range finding, 15.63 µg/plate), 0.7; in data set [4] (Range finding, 31.25 µg/plate) it was 0.8; in data set [4] (Range finding, 62.5 µg/plate), 0.7; in data set [4] (Range finding, 125 µg/plate) it was 0.9. The “fold increase value (ratio treated/solvent revertant numbers)” value in data set [4] (Range finding, 250 µg/plate) is 0.7; in data set [4] (Range finding, 500 µg/plate), 0.7; in data set [4] (Range finding, 1000 µg/plate), 0.8.
